For orientation: ΔTm means the change in melting temperature against a reference sample.

Assay [1] deals with RPS6KA6A. Description: DSF assay. As to conditions: 20 µM compound. It counts as binding. In general terms: Differential scanning fluorimetry follows unfolding on heating by fluorescence.
In assay [2] the target is T1, CHEK2A (Homo sapiens, UniProt O96017).
T1 construct: purchased in-house DSF panel (SGC-style construct names; the trailing A/B is a construct suffix)
Nature of the assay: DSF assay. As to conditions: 20 µM compound. Type of assay: binding.

In assay [3] the target is T2, SRCA (Homo sapiens, UniProt P12931).
T2 construct: purchased in-house DSF panel (SGC-style construct names; the trailing A/B is a construct suffix)
Nature of the assay: DSF assay. As to conditions: 20 µM compound. Type of assay: binding.

Assay [4] addresses T3, ABL1A (Homo sapiens, UniProt P00519).
T3 construct: purchased in-house DSF panel (SGC-style construct names; the trailing A/B is a construct suffix)
T3 sequence (P00519 229-512): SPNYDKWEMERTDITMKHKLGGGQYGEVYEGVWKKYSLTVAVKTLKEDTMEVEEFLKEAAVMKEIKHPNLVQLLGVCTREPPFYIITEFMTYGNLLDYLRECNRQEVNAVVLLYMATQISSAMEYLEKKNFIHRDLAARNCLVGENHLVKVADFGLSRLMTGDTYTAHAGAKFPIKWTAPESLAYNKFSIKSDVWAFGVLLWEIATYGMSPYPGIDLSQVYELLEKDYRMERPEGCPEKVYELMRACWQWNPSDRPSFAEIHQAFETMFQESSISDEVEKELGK
Description: DSF assay. Type of assay: binding. As to conditions: 20 µM compound.

Assay [5] addresses T4, PIM3A (Homo sapiens, UniProt Q86V86).
T4 construct: purchased in-house DSF panel (SGC-style construct names; the trailing A/B is a construct suffix)
Nature of the assay: DSF assay. As to conditions: 20 µM compound. It counts as binding.

Assay [6] has as its target T5, EPHA2A (Homo sapiens, UniProt P29317).
T5 construct: purchased in-house DSF panel (SGC-style construct names; the trailing A/B is a construct suffix)
T5 sequence (P29317 596-900): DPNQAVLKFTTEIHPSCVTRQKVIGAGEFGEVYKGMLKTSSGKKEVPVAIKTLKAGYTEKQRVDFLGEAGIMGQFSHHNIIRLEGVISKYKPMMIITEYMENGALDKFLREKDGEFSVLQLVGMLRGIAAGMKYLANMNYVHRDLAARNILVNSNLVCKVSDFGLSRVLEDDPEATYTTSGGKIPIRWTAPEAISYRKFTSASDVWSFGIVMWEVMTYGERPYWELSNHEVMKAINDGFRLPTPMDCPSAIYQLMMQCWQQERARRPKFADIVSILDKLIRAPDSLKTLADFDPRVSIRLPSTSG
Nature of the assay: DSF assay. It counts as binding. As to conditions: 20 µM compound.

Assay [7] has as its target T6, TOPKA (Homo sapiens, UniProt Q96KB5).
T6 construct: purchased in-house DSF panel (SGC-style construct names; the trailing A/B is a construct suffix)
T6 sequence (Q96KB5 32-322): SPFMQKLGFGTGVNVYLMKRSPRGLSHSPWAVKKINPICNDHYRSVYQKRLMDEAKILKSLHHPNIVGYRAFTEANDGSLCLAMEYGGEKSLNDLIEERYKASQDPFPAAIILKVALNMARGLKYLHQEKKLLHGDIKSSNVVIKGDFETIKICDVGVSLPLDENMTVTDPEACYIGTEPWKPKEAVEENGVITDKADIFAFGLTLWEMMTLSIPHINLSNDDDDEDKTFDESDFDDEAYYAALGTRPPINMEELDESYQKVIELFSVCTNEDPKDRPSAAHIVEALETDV
Description: DSF assay. It counts as binding. As to conditions: 20 µM compound.

Assay [8] has as its target T7, STK10A (Homo sapiens, UniProt O94804).
T7 construct: purchased in-house DSF panel (SGC-style construct names; the trailing A/B is a construct suffix)
Description: DSF assay. Type of assay: binding. As to conditions: 20 µM compound.

The target of assay [9] is T8, CAMK1GA (Homo sapiens, UniProt Q96NX5).
T8 construct: purchased in-house DSF panel (SGC-style construct names; the trailing A/B is a construct suffix)
Description: DSF assay. As to conditions: 20 µM compound. Type of assay: binding.

The target of assay [10] is T9, GSK3BB (Homo sapiens, UniProt P49841).
T9 construct: purchased in-house DSF panel (SGC-style construct names; the trailing A/B is a construct suffix)
Nature of the assay: DSF assay. It counts as binding. As to conditions: 20 µM compound.

Assay [11] concerns the target T10, CLK1 (Homo sapiens, UniProt P49759).
T10 construct: purchased in-house DSF panel (SGC-style construct names; the trailing A/B is a construct suffix)
Description: DSF assay. It counts as binding. As to conditions: 20 µM compound.

Assay [12] addresses T11, RIOK2A (Homo sapiens, UniProt Q9BVS4).
T11 construct: purchased in-house DSF panel (SGC-style construct names; the trailing A/B is a construct suffix)
Description: DSF assay. It counts as binding. As to conditions: 20 µM compound.

Assay [13] deals with BRPF1A. Description: DSF assay. It counts as binding. As to conditions: 20 µM compound.
In assay [14] the target is T12, MAPK14A (Homo sapiens, UniProt Q16539).
T12 construct: purchased in-house DSF panel (SGC-style construct names; the trailing A/B is a construct suffix)
Nature of the assay: DSF assay. It counts as binding. As to conditions: 20 µM compound.

Assay [15] concerns the target T13, ITK (Homo sapiens, UniProt Q08881).
T13 construct: endogenous in cells; host or cells: Jurkat
T13 sequence (Q08881 1-620): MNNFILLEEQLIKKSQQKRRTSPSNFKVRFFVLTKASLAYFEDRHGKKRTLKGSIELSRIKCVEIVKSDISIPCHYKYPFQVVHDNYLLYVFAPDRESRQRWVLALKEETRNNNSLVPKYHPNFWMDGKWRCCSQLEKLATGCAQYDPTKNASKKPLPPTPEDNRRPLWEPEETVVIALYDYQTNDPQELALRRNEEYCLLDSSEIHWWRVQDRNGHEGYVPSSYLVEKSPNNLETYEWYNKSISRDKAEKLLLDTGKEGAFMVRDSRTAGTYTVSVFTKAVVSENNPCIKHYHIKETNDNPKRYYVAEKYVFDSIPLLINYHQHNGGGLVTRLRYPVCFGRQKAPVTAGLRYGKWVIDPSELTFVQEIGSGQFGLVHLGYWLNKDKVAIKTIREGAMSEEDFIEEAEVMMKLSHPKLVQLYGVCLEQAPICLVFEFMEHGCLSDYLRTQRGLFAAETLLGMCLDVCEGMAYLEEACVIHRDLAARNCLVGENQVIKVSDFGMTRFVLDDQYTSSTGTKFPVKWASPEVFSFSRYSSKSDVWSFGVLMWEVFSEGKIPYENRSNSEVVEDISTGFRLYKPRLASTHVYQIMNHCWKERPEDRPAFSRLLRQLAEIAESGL
Description: Western blot assay. It counts as cell-based. As to conditions: Jurkat cells, 6 h. The protocol: Two mL of Jurkat cells were seeded into 6 well plates (Greiner) at a density of 5·10 5 cells/mL.
The following day, cells were treated with compounds at according concentrations or DMSO for 6 hours and then lysed with 6 M Urea at 4 °C for 20 minutes. The lysates were centrifuged for 15 minutes at 16000 g and the supernatant was collected to perform the Western-Blot.
Protein quantification was performed using nanodrop One. The SDS samples were prepared […]
The samples were separated by a BIS-TRIS polyacrylamide gel polyacrylamide gel, 100 V for 1:45) followed by transfer to PVDF membranes (Millipore) at 350 mA for 140 minutes. The membranes were blocked using 5%wt/vol BSA (in TBS-T, 20 mM Tris-HCl, pH 7.5, 150 mM NaCl and 0.1% (vol/vol) Tween 20) at room temperature for 1 hour.
The blots were incubated with respective primary antibodies at 1:1000 dilution (Cell Signaling technologies: Aurora A (D3E4Q), ITK (2F12) and GAPDH (D4C6R)) at 4 °C overnight. The blots were washed with TBS-T thrice and incubated with 1:5000 dilution of horseradish peroxidase (HRP)-labelled respective secondary antibodies (Cell Signaling technologies, Anti- […]
The blots were washed with TBS-T thrice and then incubated with chemiluminescent HRP substrate (Bio-Rad) for 2 minutes. The blots were imaged and the signals were detected using the Amersham ImageQuant 800 (Cytiva).
Cell culture. Human MV4-11 ([…]) and human Jurkat ([…]) cells were cultured in RPMI- […]
°C in 5% CO2. Both media were supplemented with 10% FBS and 1% penicillin/streptomycin. […]
Background: Immunoblotting shows a protein as a band on a membrane.

T7 sequence (O94804 18-317): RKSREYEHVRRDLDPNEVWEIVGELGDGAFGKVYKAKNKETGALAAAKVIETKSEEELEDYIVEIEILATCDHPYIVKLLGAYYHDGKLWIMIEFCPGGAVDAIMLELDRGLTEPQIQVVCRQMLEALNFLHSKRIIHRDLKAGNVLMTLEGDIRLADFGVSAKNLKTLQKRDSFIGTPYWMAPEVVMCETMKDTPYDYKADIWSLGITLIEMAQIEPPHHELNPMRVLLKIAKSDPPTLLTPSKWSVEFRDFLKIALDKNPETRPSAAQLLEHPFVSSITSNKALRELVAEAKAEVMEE
T1 sequence (O96017 210-531): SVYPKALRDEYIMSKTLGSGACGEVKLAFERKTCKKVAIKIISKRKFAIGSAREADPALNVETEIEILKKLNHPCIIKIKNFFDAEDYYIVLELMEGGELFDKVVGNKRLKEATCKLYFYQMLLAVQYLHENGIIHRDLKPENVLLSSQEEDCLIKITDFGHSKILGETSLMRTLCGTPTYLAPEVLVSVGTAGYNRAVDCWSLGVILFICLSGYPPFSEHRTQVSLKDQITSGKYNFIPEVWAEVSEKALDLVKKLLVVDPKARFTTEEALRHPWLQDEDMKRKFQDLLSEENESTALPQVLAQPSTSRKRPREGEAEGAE
T11 sequence (Q9BVS4 whole entry): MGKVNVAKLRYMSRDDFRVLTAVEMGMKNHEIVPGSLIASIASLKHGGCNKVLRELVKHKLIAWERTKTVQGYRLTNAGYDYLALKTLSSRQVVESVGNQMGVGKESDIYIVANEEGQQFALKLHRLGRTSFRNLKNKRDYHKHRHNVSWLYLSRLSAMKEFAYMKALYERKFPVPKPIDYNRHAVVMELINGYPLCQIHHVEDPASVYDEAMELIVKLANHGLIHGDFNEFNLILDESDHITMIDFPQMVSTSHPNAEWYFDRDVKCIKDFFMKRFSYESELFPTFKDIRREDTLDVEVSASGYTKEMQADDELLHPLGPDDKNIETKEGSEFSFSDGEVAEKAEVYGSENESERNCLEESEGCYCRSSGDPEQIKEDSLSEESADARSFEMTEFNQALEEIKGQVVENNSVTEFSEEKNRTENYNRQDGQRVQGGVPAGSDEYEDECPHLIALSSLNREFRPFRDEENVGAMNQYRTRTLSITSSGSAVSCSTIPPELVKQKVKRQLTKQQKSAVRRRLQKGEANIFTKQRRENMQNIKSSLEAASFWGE
T2 sequence (P12931 254-536): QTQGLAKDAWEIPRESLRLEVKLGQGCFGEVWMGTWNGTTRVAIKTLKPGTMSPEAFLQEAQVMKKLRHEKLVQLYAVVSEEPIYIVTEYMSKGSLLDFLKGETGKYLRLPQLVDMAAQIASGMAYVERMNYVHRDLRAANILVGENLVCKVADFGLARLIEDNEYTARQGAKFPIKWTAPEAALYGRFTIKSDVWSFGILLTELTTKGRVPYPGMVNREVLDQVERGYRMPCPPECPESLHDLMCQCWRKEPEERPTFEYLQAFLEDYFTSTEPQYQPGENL
T9 sequence (P49841 35-386): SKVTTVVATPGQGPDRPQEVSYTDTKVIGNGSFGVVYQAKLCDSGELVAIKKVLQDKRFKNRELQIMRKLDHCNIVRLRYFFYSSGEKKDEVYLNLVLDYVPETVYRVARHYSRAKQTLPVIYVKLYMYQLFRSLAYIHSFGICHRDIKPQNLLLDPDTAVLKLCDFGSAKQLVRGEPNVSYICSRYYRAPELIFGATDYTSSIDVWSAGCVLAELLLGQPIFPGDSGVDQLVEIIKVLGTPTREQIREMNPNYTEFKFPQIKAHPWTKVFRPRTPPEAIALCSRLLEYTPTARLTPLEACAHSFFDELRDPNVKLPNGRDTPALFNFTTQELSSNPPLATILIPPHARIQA
T8 sequence (Q96NX5 23-277): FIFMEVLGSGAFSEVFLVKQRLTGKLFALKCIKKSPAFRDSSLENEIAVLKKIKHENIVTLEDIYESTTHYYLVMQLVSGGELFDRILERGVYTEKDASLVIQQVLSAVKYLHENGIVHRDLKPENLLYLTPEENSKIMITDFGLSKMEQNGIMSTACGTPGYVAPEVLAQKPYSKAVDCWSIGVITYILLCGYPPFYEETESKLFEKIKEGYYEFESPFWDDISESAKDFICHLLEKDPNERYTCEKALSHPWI
T12 sequence (Q16539 whole entry): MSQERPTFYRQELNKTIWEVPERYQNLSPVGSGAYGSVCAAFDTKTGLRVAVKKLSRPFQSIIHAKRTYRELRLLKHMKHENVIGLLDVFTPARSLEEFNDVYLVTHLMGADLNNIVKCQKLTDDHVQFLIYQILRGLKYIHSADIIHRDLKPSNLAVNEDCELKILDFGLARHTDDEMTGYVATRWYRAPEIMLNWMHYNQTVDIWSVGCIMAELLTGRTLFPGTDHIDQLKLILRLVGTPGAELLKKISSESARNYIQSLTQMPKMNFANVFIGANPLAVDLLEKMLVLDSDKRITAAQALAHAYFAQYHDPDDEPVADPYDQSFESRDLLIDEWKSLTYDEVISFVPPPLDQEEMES
T10 sequence (P49759 148-484): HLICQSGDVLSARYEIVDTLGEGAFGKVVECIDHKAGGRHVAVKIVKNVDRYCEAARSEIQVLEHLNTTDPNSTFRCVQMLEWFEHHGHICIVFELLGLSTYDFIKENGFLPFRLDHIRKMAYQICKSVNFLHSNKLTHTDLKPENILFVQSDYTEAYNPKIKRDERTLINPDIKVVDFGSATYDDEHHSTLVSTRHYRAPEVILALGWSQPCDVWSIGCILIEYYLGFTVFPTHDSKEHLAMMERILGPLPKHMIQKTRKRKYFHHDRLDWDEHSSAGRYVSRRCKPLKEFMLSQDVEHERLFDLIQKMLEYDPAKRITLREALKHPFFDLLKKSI

Consider `CCOC(=O)c1cc(Nc2cc(C3CC3)[nH]n2)nc(Nc2ccc(CC#N)cc2)n1` [compound 5], for which the ΔTm was 0.34 °C in [1] and -0.64 °C in assay [13]. Moreover, the ΔTm at 20 µM in [2] is 4.17 °C; in assay [3], 3.24 °C; in assay [4], 7.27 °C; in assay [5], -0.28 °C; in assay [6], 6.12 °C; in assay [7], 2.93 °C. Moreover, the thermal shift (ΔTm) at 20 µM in [8] stood at 9.37 °C; in assay [9] it was 1.53 °C; in assay [10] it was 14.4 °C; in assay [11], 14.4 °C; in [12], 6.53 °C; in assay [14] it was 0.11 °C.

As to `Cc1ncsc1-c1ccc(CNC(=O)[C@@H]2C[C@@H](O)CN2C(=O)[C@@H](NC(=O)CCOCCOCCOCCN2CCN(c3cc(Nc4cc(C5CC5)[nH]n4)nc(Nc4ccc(CC#N)cc4)n3)CC2)C(C)(C)C)cc1` [4-a], the “ITK protein levels (Western blot)” value in assay [15] is recorded as “dose-dependent degradation of ITK”.

Turning to `CC(C)(C)OC(=O)NCCOCCOCCOCCOCCC(=O)N1CCN(c2cc(Nc3cc(C4CC4)[nH]n3)nc(Nc3ccc(CC#N)cc3)n2)CC1` [4-L], the ΔTm in assay [1] is 0.07 °C; in assay [13], 1.15 °C. The ΔTm at 20 µM in assay [2] is 6.36 °C; in assay [3], 7.07 °C; in assay [4], 11.3 °C; in assay [5], -4.95 °C; in assay [6], 8.99 °C; in [7], 0.95 °C. The ΔTm at 20 µM in assay [8] was 11.8 °C; in assay [9], 0.98 °C; in assay [10] it was 14.8 °C; in [11], 12 °C; in assay [12], 6.13 °C; in [14], 0.05 °C.

Regarding `Cc1ncsc1-c1ccc(CNC(=O)[C@@H]2C[C@H](O)CN2C(=O)[C@@H](NC(=O)CCOCCOCCOCCOCCN2CCN(c3ccc(Nc4ncc(Cl)c(Nc5ccccc5C(N)=O)n4)cc3)CC2)C(C)(C)C)cc1` [6-b^neg], in assay [15], the “ITK protein levels (Western blot)” value is given as “did not cause any degradation of ITK”.

For `Cc1ncsc1-c1ccc(CNC(=O)[C@@H]2C[C@H](O)CN2C(=O)[C@@H](NC(=O)CCOCCOCCOCCN2CCN(c3cc(Nc4cc(C5CC5)[nH]n4)nc(Nc4ccc(CC#N)cc4)n3)CC2)C(C)(C)C)cc1` [4-a^neg], the “ITK protein levels (Western blot)” value in assay [15] is reported as “did not cause any degradation of ITK”.

Take `Cc1ncsc1-c1ccc(CNC(=O)[C@@H]2C[C@@H](O)CN2C(=O)[C@@H](NC(=O)CCOCCOCCOCCOCCN2CCN(c3ccc(Nc4ncc(Cl)c(Nc5ccccc5C(N)=O)n4)cc3)CC2)C(C)(C)C)cc1` [6-b]: the “ITK protein levels (Western blot)” value in [15] is recorded as “dose-dependent degradation of ITK”.

Turning to `CC(C)(C)OC(=O)NCCCOCCOCCOCCCNC(=O)c1cc(Nc2cc(C3CC3)[nH]n2)nc(Nc2ccc(CC#N)cc2)n1` [5-L], the results for the thermal shift (ΔTm) in [1] and in assay [13] were 0.35 °C and -0.68 °C, respectively. Further, the shift in melting temperature (ΔTm) at 20 µM in assay [2] was found to be 5.41 °C; in assay [3], 2.2 °C; in assay [4] it was 6.31 °C; in [5], 0.61 °C; in assay [6], 4.48 °C; in assay [7] it was 1.75 °C. The shift in melting temperature (ΔTm) at 20 µM in assay [8] turned out to be 7.84 °C; in assay [9], 3.37 °C; in assay [10] it was 14.2 °C; in assay [11] it was 13.6 °C; in assay [12], 5.03 °C; in assay [14] it was 0.52 °C.
